Experimental data from patent US5225416A, “1,2,3,6-tetrahydropyridine derivatives useful for improving cerebral blood circulation” (Richter Gedeon Vegyeszeti Termekek Gyara Rt., priority 1990, dated 1993).

Key:
Type in all cases: in vivo
male (CFLP LATI) mice [1] = assay: Anoxic asphyxia (asphyxial anoxia), antihypoxic effect in mice; settings: Mus musculus, po, read-out: ED50 asphyxial anoxia
Method: (§1) Male (CFLP LATI) mice weighing 24-26 g and male spontaneous hypertensive rats (SHR) weighing 160-180 g were used as test animals. The test compounds were administered orally in a volume of 10 ml/kg 1 hour before the test.
(§2) The mice were treated after 16 hours fasting with the oral dosage of the test compounds. 1 hour after the treatment the animals were placed to 100 ml sealed glasses and the survival time of the animals was measured. The groups consisting of 10 animals and treated with the test compounds were considered protected if the average survival time was by 30 percent longer than the survival of the group treated with placebo. From the percentage of the surviving animals the 50% effective dosage (ED50) was calculated by probit analysis.

male (CFLP LATI) mice [2] = assay: Hypobaric hypoxia (HH), antihypoxic effect in mice; settings: Mus musculus, po, read-out: ED50 hypobaric hypoxia
Method: as §1
Animals surviving by 100% longer than the average survival of the control group were considered as protected.

male (CFLP LATI) mice [3] = assay: Cytotoxic hypoxia (KCN), antihypoxic effect in mice; settings: Mus musculus, po, read-out: ED50 cytotoxic hypoxia
[4] = system: male spontaneous hypertensive rats (SHR); assay: Hypobaric hypoxia in SHR rats; settings: Rattus norvegicus, po, 1 hour before the test, 22.66 kPa, protected = survival 30 percent longer, 95% fiducial limit on next line
Method: as §1
(§3) The rats were placed to a 6-liter exsiccator 1 hour after pretreatment to each exsiccator 2 rats were placed. The pressure was reduced in the exsiccator within 20 seconds to 22.66 kPa (170 Hgmm) and the survival time was measured from this time on until the last breathing movement. Animals which survived by 30 percent longer than the average survival of the control group were considered as protected. From the percentage of the protected animals the ED50 i.e. the 50% effective dosage was calculated by probit analysis with the pertaining 95% fiducial limit.

[5] = system: mice and spontaneous hypertensive rats; assay: Hypoxic models taken together (asphyxial anoxia, hypobaric hypoxia, cytotoxic hypoxia, hypobaric hypoxia SHR)
Method: as §1, §2
After 16 hours of fasting and 1 hour of pretreatment the animals were placed to a 6-liter exsiccator and the pressure was reduced within 20 seconds to 22.66 kPa (170 Hgmm), and from this time on the survival time was measured until the last breathing movement. Animals surviving by 100% longer than the average survival of the control group were considered as protected.
The animals were treated after 1 hour pretreatment with an i.v. dosage of 5 mg/kg potassium cyanide. The survival time was measured from the administration of potassium cyanide to the last breathing movement. The protected condition was determined according to the method described for anoxic asphyxia.
as §3
For testing the active ingredients various forms of hypoxia were used. In case of asphyxial anoxia the complete loss of the oxygen supply, at hypobaric hypoxia the reducing of the oxygen saturation condition of the haemoglobin and in case of cytotoxic hypoxia the blocking of the mytochondrial breathing enzime cause a functional disorganisation and necrosis of the cells, even death in otherwise healthy mice. The spontaneous hypertensive rats are more sensitive to the hypoxial influences than the normotensive animals as the survival chance of a person suffering from hypertension is also worse after suffering from hypoxial influences.

[6] = 1 hour before the test, mice, protected = survival 30 percent longer, probit analysis
[7] = 1 hour before the test, mice, 22.66 kPa, protected = survival 100% longer, 95% fiducial limit on next line
[8] = 1 hour before the test, mice, KCN 5 mg/kg i.v., 95% fiducial limit on next line

SMILES	ED50 (male (CFLP LATI) mice [1]; [6])	ED50 (male (CFLP LATI) mice [2]; [7])	ED50 (male (CFLP LATI) mice [3]; [8])	ED50 [4]	ED50 (male (CFLP LATI) mice [1])	ED50 (male (CFLP LATI) mice [2])	ED50 (male (CFLP LATI) mice [3])	dosage relative to that of vincamine ([5]; antihypoxic effect on two models)	antihypoxic effect ([5]; number of models on which the effect could be proved)	effect in all hypoxic models used ([5]; all hypoxic models, in words)	survival time of the animals ([5]; all hypoxic models, in words)
OC(CCN1CC=C(c2ccccc2)CC1)c1ccc(Cc2ccc(Cl)cc2)cc1 (stereo not drawn) [Example 0207724]	50 mg/kg	27.5 mg/kg	17.5 mg/kg	8.2 mg/kg	–	–	–	–	–	–	–
NC(=O)CN1CCCC1=O [Piracetam, 2-oxo-1-pyrrolidinyl-acetic amide]	–	–	–	–	100 mg/kg	100 mg/kg	132 mg/kg	5-10 times	could be proved on two models	–	–
CC[C@]12CCCN3CCc4c(n(c5ccccc45)[C@@](O)(C(=O)OC)C1)[C@@H]32 [Vincamin, (+)-14β-hydroxy-14α-methoxy-carbonyl-14,15-dihydro-eburnamenine]	51.1 mg/kg	60.7 mg/kg	27 mg/kg	27.9 mg/kg	–	–	–	–	–	effective	prolonged
